Laboratory results from ChEMBL document CHEMBL1146443, “New indole derivatives with free radical scavenging activity from Agrocybe cylindracea” (J Nat Prod, 1997).
≈ marks a conversion by molar mass, not a printed value. Calls of active or inactive are those of the source. The rule behind the calls is not given here.

Legend:
[1] = tested on: Liver microsomes; assay: Inhibition of lipid peroxidation in rat liver microsome at 50 ug/mL; format: functional
[2] = tested on: Liver microsomes; assay: Inhibition of lipid peroxidation in rat liver microsome; format: functional

O=C(O)Cc1c[nH]c2ccccc12
Activity [1]: inactive

O=Cc1c[nH]c2cc(O)ccc12
IC50 [2]: 4.1 µg/mL (≈ 25.4 µM)

NC(=O)Cc1c[nH]c2cc(O)ccc12
IC50 [2]: 3.9 µg/mL (≈ 20.5 µM)
